Experimental data as given in patent publication US20220340579A1, “PYRAZOLYL BICYCLIC AMINES AS CDK2 INHIBITORS” (Incyte Corporation, priority 2021, published 2022).

What follows are molecules tested against T1, CDK2/Cyclin E1 (Homo sapiens, UniProt P24941) (assay: CDK2/Cyclin E1 HTRF enzyme activity assay). Conditions: 1 mM ATP.
T1 construct: enzyme activity assays utilize full-length human CDK2; GST (N); purchased Carna 04-165; host or cells: baculovirus expression system
Format: biochemical
Description: Example A. CDK2/Cyclin E1 HTRF Enzyme Activity Assay
CDK2/Cyclin E1 enzyme activity assays utilize full-length human CDK2 co-expressed as N-terminal GST-tagged protein with FLAG-Cyclin E1 in a baculovirus expression system (Carna Product Number 04-165). Assays were conducted in white 384-well polystyrene plates in a final reaction volume of 8 μL. CDK2/Cyclin E1 (0.25 nM) was incubated with the compounds of the Examples (40 nL serially diluted in DMSO) in the presence of ATP (50 μM or 1 mM) and 50 nM ULight™-labeled eIF4E-binding protein 1 (THR37/46) peptide (PerkinElmer) in assay buffer (containing 50 mM HEPES pH 7.5, 1 mM EGTA, 10 mM MgCl2, 2 mM DTT, 0.05 mg/mL BSA, and 0.01% Tween 20) for 60 minutes at room temperature. The reactions were stopped by the addition of EDTA and Europium-labeled anti-phospho-4E-BP1 antibody (PerkinElmer), for a final concentration of 15 mM and 1.5 nM, respectively. HTRF signals were read after 1 hour at room temperature on a PHERAstar FS plate reader (BMG Labtech). Data was analyzed with IDBS XLFit and GraphPad Prism 5.0 software using a three or four parameter dose response curve to determine IC50 for each compound.

IC50, ≤ 10 nM:
C[C@@H]1CN(S(C)(=O)=O)CC[C@@H]1Nc1nc2c(OC3CCC3)c(-c3cn[nH]c3)ncn2n1 [Example 1, 8-Cyclobutoxy-N-((3R,4S)-3-methyl-1-(methylsulfonyl)piperidin-4-yl)-7-(1H-pyrazol-4-yl)-[1,2,4]triazolo[1,5-c]pyrimidin-2-amine]
C[C@@H]1CN(S(C)(=O)=O)CC[C@@H]1Nc1nc2cnc(-c3cn[nH]c3)c(OCC(F)(F)F)n2n1 [Example 3, N-((3R,4S)-3-Methyl-1-(methylsulfonyl)piperidin-4-yl)-6-(1H-pyrazol-4-yl)-5-(2,2,2-trifluoroethoxy)-[1,2,4]triazolo[1,5-a]pyrazin-2-amine]
C[C@@H]1CN(S(C)(=O)=O)CC[C@@H]1Nc1nc2c(OCC(F)(F)F)c(-c3cn[nH]c3)ncn2n1 [Example 2, N-((3R,4S)-3-Methyl-1-(methylsulfonyl)piperidin-4-yl)-7-(1H-pyrazol-4-yl)-8-(2,2,2-trifluoroethoxy)-[1,2,4]triazolo[1,5-c]pyrimidin-2-amine]
